Laboratory results as given in patent US8076103B2, “Eukaryotic expression system for the incorporation of stable isotopes into proteins” (The Board of Trustees of the Leland Stanford Junior …, priority 2007, dated 2011).

Target: T1, human β2AR (Homo sapiens, UniProt P07550)
T1 construct: made in house; host or cells: Trichoplusia ni larvae orally infected with occluded recombinant baculovirus; crude membrane fraction
Assay: Saturation binding of [^3H]-dihydroalprenolol to T. ni membranes expressing β2AR
Details: 4 days after oral infection
Description: This vector was used to produce orally infectious occluded baculovirus as follows. Sf9 cells were infected with above vector and allowed to grow for approximately four days until their nuclei were filled with polyhedral inclusion bodies (PIBs). The cells were pelleted by centrifugation, and lysed by resuspension and douncing in SDS (0.5%). PIBs were pelleted from the lysate by a high-speed spin, washed with sodium chloride (500 mM), and resuspended in distilled water. T. ni larvae were infected with occluded baculovirus by applying drops of purified PIBs (˜10^7 PIBs per cube) to small cubes of insect diet. Newly molted 5th instar larvae (mass ˜100 mg) were starved for 6 hours and then permitted to feed on the infected diet. […] These larvae were frozen in liquid nitrogen and stored at −80° C. Larvae were subsequently lysed and a crude membrane fraction was prepared. Saturation binding was performed with [^3H]dihydroalprenolol, a βAR antagonist.

T1 sequence (P07550 whole entry): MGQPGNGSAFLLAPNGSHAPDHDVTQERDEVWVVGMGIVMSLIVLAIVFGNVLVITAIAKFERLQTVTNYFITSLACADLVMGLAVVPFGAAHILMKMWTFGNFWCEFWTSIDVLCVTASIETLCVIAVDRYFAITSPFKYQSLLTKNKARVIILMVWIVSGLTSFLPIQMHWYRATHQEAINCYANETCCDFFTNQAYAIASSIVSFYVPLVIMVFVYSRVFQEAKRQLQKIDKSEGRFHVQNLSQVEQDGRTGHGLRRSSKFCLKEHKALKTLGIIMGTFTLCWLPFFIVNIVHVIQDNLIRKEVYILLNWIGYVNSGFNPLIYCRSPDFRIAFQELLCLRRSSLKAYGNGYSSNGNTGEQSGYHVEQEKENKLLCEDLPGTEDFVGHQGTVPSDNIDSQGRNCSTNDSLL

- Bmax: 16 pmol/mg total protein
- Kd: 1.6 nM
SMILES: CCCc1ccccc1OCC(O)CNC(C)C (centres unmarked) [[^3H]-dihydroalprenolol]
